Measurements: patent publication US9718788B2, “Heteroaryl compounds useful as inhibitors of E1 activating enzymes” (MILLENNIUM PHARMACEUTICALS, INC., priority 2006, dated 2017)

Each molecule was assayed against T1, recombinant human NAE enzyme (Homo sapiens, UniProt Q8TBC4) (assay: Nedd8-Activating Enzyme (NAE) HTRF Assay). Conditions: 20 μM ATP, bound given in nM.
T1 construct: His (N); made in house; host or cells: Sf9 insect cells (baculovirus, Bac-to-Bac)
T1 sequence (Q8TBC4 1-463): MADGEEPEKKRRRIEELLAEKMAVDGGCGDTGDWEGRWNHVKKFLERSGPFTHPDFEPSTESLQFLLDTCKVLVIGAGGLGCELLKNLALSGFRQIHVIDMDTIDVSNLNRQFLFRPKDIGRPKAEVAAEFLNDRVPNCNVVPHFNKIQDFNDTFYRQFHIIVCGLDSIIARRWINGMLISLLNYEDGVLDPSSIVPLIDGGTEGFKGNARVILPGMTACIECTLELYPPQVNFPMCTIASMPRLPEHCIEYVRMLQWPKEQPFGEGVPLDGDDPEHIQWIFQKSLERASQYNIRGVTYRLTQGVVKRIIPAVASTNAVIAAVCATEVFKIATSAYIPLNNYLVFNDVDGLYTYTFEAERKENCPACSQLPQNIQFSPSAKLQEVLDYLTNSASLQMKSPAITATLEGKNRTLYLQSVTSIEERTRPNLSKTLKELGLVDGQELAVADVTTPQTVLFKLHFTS
T1 sequence (Q13564 1-534 partner): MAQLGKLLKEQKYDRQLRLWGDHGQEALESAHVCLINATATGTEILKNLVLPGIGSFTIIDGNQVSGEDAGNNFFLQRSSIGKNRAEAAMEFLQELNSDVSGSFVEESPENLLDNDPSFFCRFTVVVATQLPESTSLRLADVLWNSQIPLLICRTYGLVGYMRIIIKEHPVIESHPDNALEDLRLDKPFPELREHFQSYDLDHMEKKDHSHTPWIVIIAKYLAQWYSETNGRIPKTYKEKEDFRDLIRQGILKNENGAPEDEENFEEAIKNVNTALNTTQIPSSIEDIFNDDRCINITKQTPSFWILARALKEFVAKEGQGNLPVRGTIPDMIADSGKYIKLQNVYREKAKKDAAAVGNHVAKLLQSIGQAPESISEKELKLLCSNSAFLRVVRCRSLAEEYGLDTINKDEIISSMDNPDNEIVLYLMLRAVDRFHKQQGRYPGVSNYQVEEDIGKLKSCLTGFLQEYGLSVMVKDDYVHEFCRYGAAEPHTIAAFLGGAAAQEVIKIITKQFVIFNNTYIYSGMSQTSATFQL
Type: biochemical
Description: Following manufacturer instructions, baculoviruses were generated with the Bac-to-Bac Expression System (Invitrogen) for the following proteins: untagged NAEα (APPBP1; NP_003896.1), N-terminally His-tagged NAEJ (UBE1C; NP_003959.3), untagged SAEα (SAE1; NP_005491.1), N-terminally His-tagged SAE3 (UBA2; NP_005490.1), N-terminally His-tagged murine UAE (UBE1X; NP_033483). NAEα/His-NAEβ and SAEα/His-SAEβ complexes were generated by co-infection of Sf9 cells, which were harvested after 48 hours. His-mUAE was generated by single infection of Sf9 cells and harvested after 72 hours. Expressed proteins were purified by affinity chromatography (Ni-NTA agarose, Qiagen) using standard buffers. Nedd8-Activating Enzyme (NAE) HTRF Assay. The NAE enzymatic reaction totaled 50 μL and contained 50 mM HEPES (pH 7.5), 0.05% BSA, 5 mM MgCl2, 20 μM ATP, 250 μM GSH, 0.01 μM Ubc12-GST, 0.075 μM Nedd8-Flag and 0.20 nM recombinant human NAE enzyme. The enzymatic reaction mixture, with and without compound inhibitor, was incubated at room temperature 24° C. for 105 minutes in a 384-well plate before termination with 25 μL of Stop/Detection buffer (0.1M HEPES pH 7.5, 0.05% Tween20, 20 mM EDTA, 410 mM KF, 0.53 nM Europium-Cryptate labeled monoclonal anti-FLAG M2 antibody (CisBio International) and 8.125 μg/mL PHYCOLINK goat anti-GST allophycocyanin (XL-APC) antibody (Prozyme)). After incubation for 1 hour at 24° C., quantification of the FRET was performed on the Analyst™ HT 96.384 (Molecular Devices).

| SMILES | IC50 [nM] |
| --- | --- |
| NS(=O)(=O)OC[C@H]1C[C@@H](Nc2cc(N[C@H]3CCc4c(Cl)cccc43)ncn2)[C@H](O)[C@@H]1O [Compound I-24, {(1R,2R,3S,4R)-4-[(6-{[(1S)-4-chloro-2,3-dihydro-1H-inden-1-yl]amino}-pyrimidin-4-yl)-amino]-2,3-dihydroxycyclopentyl}methyl sulfamate] | ≤ 500 |
| NS(=O)(=O)OC[C@H]1C[C@@H](Nc2cc(N[C@H]3CCc4ccccc43)ncn2)C[C@@H]1O [Compound I-25, [(1R,2S,4R)-4-({6-[(1S)-2,3-dihydro-1H-inden-1-ylamino]pyrimidin-4-yl}amino)-2-hydroxycyclopentyl]methyl sulfamate] | ≤ 500 |
| NS(=O)(=O)OC[C@H]1C[C@@H](Nc2ncnc(N[C@H]3CCc4ccccc43)n2)[C@H](O)[C@@H]1O [Compound I-26, [(1R,2R,3S,4R)-4-({4-[(1S)-2,3-dihydro-1H-inden-1-ylamino]-1,3,5-triazin-2-yl}-amino)-2,3-dihydroxycyclopentyl]methyl sulfamate] | ≤ 500 |
| NS(=O)(=O)OC[C@H]1C[C@@H](Nc2cc(NCc3ccccc3)ncn2)[C@H](O)[C@@H]1O [Compound I-27, ((1R,2R,3S,4R)-4-{[6-(benzylamino)pyrimidin-4-yl]amino}-2,3-dihydroxycyclopentyl)-methyl sulfamate] | ≤ 500 |
| NS(=O)(=O)OC[C@H]1C[C@@H](NC(=O)c2ccncc2)[C@H](O)[C@@H]1O [Compound I-28, [(1R,2R,3S,4R)-2,3-dihydroxy-4-(isonicotinoylamino)cyclopentyl]methyl sulfamate] | > 500 |
| NS(=O)(=O)OC[C@H]1C[C@@H](Nc2cc(N[C@H]3CCc4ccccc43)ncn2)[C@H](O)[C@@H]1O [Compound I-29, [(1R,2R,3S,4R)-4-({6-[(1S)-2,3-dihydro-1H-inden-1-ylamino]pyrimidin-4-yl}-amino)-2,3-dihydroxycyclopentyl]methyl sulfamate] | ≤ 500 |
| Cc1c(N[C@H]2CCc3ccccc32)ncnc1O[C@@H]1C[C@@H](COS(N)(=O)=O)[C@@H](O)C1 [Compound I-32, [(1S,2S,4R)-4-({6-[(1S)-2,3-dihydro-1H-inden-1-ylamino]-5-methylpyrimidin-4-yl}oxy)-2-hydroxycyclopentyl]methyl sulfamate] | ≤ 500 |
| NS(=O)(=O)OC[C@@H]1C[C@@H](Cc2cc(N[C@H]3CCc4ccccc43)ncn2)C[C@@H]1O [Compound I-33, [(1S,2S,4S)-4-({6-[(1S)-2,3-dihydro-1H-inden-1-ylamino]pyrimidin-4-yl}methyl)-2-hydroxycyclopentyl]methyl sulfamate] | > 500 |
| NS(=O)(=O)OC[C@@H]1C[C@@H](Nc2ncnc3[nH]c(-c4ccccc4Cl)nc23)C[C@@H]1O [Compound I-34, ((1S,2S,4R)-4-{[8-(2-chlorophenyl)-9H-purin-6-yl]amino}-2-hydroxycyclopentyl)methyl sulfamate] | ≤ 500 |
| CC1(C)C[C@H](Nc2cc(O[C@@H]3C[C@@H](COS(N)(=O)=O)[C@@H](O)C3)ccn2)c2ccc(Cl)cc21 [Compound I-35, {(1S,2S,4R)-4-[(2-{[(1S)-5-chloro-3,3-dimethyl-2,3-dihydro-1H-inden-1-yl]-amino}-pyridin-4-yl)oxy]-2-hydroxycyclopentyl}methyl sulfamate] | > 500 |
| Cn1c(-c2ccccc2)nc2ncnc(N[C@@H]3C[C@@H](COS(N)(=O)=O)[C@@H](O)C3)c21 [Compound I-36, {(1S,2S,4R)-2-hydroxy-4-[(7-methyl-8-phenyl-7H-purin-6-yl)-amino]cyclopentyl}methyl sulfamate] | > 500 |
| NS(=O)(=O)OC[C@@H]1C[C@@H](Nc2ncnc3[nH]c(-c4ccccc4Oc4ccccc4)nc23)C[C@@H]1O [Compound I-37, ((1S,2S,4R)-2-hydroxy-4-{[8-(2-phenoxyphenyl)-9H-purin-6-yl]amino}-cyclopentyl)methyl sulfamate] | ≤ 500 |
| NS(=O)(=O)OC[C@@H]1C[C@@H](Nc2ncnc3[nH]c(-c4ccccc4)cc23)C[C@@H]1O [Compound I-38, {(1S,2S,4R)-2-hydroxy-4-[(6-phenyl-7H-pyrrolo[2,3-d]pyrimidin-4-yl)-amino]cyclopentyl}methyl sulfamate] | ≤ 500 |
| NS(=O)(=O)OC[C@@H]1C[C@@H](Nc2ncnc3[nH]c(-c4cccc5c4oc4ccccc45)nc23)C[C@@H]1O [Compound I-39, {(1S,2S,4R)-4-[(8-dibenzo[b,d]furan-4-yl-9H-purin-6-yl)amino]-2-hydroxycyclopentyl}methyl sulfamate] | ≤ 500 |
| NS(=O)(=O)OC[C@@H]1C[C@@H](Oc2cc(N[C@H]3CCCc4ccccc43)ncn2)C[C@@H]1O [Compound I-40, [(1S,2S,4R)-2-hydroxy-4-({6-[(1S)-1,2,3,4-tetrahydronaphthalen-1-ylamino]pyrimidin-4-yl}oxy)cyclopentyl]methyl sulfamate] | ≤ 500 |
| NS(=O)(=O)OC[C@@H]1C[C@@H](Nc2ncnc3[nH]c(-c4cccc5c4OCCO5)nc23)C[C@@H]1O [Compound I-41, ((1S,2S,4R)-4-{[8-(2,3-dihydro-1,4-benzodioxin-5-yl)-9H-purin-6-yl]amino}-2-hydroxycyclopentyl)methyl sulfamate] | ≤ 500 |
| NS(=O)(=O)OC[C@@H]1C[C@@H](Oc2cc(NCc3cccc4ccccc34)ncn2)C[C@@H]1O [Compound I-42, [(1S,2S,4R)-2-hydroxy-4-({6-[(1-naphthylmethyl)amino]pyrimidin-4-yl}-oxy)cyclopentyl]methyl sulfamate] | ≤ 500 |
| C[C@H]1Cc2ccccc2[C@H]1Nc1cc(O[C@@H]2C[C@@H](COS(N)(=O)=O)[C@@H](O)C2)ncn1 [Compound I-43, {(1S,2S,4R)-2-hydroxy-4-[(6-{[(1S,2S)-2-methyl-2,3-dihydro-1H-inden-1-yl]-amino}pyrimidin-4-yl)oxy]cyclopentyl}methyl sulfamate] | ≤ 500 |
| Cc1nc(N[C@H]2CCc3ccccc32)nc(N[C@@H]2C[C@H](COS(N)(=O)=O)[C@@H](O)[C@H]2O)n1 [Compound I-45, [(1R,2R,3S,4R)-4-({4-[(1S)-2,3-dihydro-1H-inden-1-ylamino]-6-methyl-1,3,5-triazin-2-yl}amino)-2,3-dihydroxycyclopentyl]methyl sulfamate] | ≤ 500 |

Same assay, conditions: 20 μM ATP, bound given in μM

| SMILES | IC50 [nM] |
| --- | --- |
| NS(=O)(=O)OC[C@H]1C[C@@H](NC(=O)c2ccccn2)[C@H](O)[C@@H]1O [Compound I-23, {(1R,2R,3S,4R)-2,3-dihydroxy-4-[(pyridin-2-ylcarbonyl)amino]cyclopentyl}-methyl sulfamate] | > 10000 |
| NS(=O)(=O)OC[C@H]1C[C@@H](NC(=O)c2ccncc2)[C@H](O)[C@@H]1O [Compound I-28, [(1R,2R,3S,4R)-2,3-dihydroxy-4-(isonicotinoylamino)cyclopentyl]methyl sulfamate] | < 10000 |
| Cc1nc(NCc2ccccc2)cc(N[C@@H]2C[C@H](COS(N)(=O)=O)[C@@H](O)[C@H]2O)n1 [Compound I-30, ((1R,2R,3S,4R)-4-{[6-(benzylamino)-2-methylpyrimidin-4-yl]amino}-2,3-dihydroxycyclopentyl)methyl sulfamate] | > 10000 |
| NS(=O)(=O)OC[C@@H]1C[C@@H](Oc2cc(N[C@H]3CCc4ccccc43)ncn2)C[C@@H]1O [Compound I-31, [(1S,2S,4R)-4-({6-[(1S)-2,3-Dihydro-1H-inden-1-ylamino]pyrimidin-4-yl}oxy)-2-hydroxycyclopentyl]methyl sulfamate] | > 10000 |
| NS(=O)(=O)OC[C@@H]1C[C@@H](Cc2cc(N[C@H]3CCc4ccccc43)ncn2)C[C@@H]1O [Compound I-33, [(1S,2S,4S)-4-({6-[(1S)-2,3-dihydro-1H-inden-1-ylamino]pyrimidin-4-yl}methyl)-2-hydroxycyclopentyl]methyl sulfamate] | < 10000 |
| CC1(C)C[C@H](Nc2cc(O[C@@H]3C[C@@H](COS(N)(=O)=O)[C@@H](O)C3)ccn2)c2ccc(Cl)cc21 [Compound I-35, {(1S,2S,4R)-4-[(2-{[(1S)-5-chloro-3,3-dimethyl-2,3-dihydro-1H-inden-1-yl]-amino}-pyridin-4-yl)oxy]-2-hydroxycyclopentyl}methyl sulfamate] | < 10000 |
| Cn1c(-c2ccccc2)nc2ncnc(N[C@@H]3C[C@@H](COS(N)(=O)=O)[C@@H](O)C3)c21 [Compound I-36, {(1S,2S,4R)-2-hydroxy-4-[(7-methyl-8-phenyl-7H-purin-6-yl)-amino]cyclopentyl}methyl sulfamate] | < 10000 |
